Counter-ions that a name gives are not always drawn.
Biological target: DPP-IV enzyme (Homo sapiens, UniProt P27487)
Assay: Assay for determining DPP-IV inhibitory activity (DPP-IV-Glo luminescence)
Procedure: IC50 was determined by a NovoStar ELIASA (BMG Co. German);
The definition of inhibitory rate: [1−(S−B)/(N−B)]*100%

Sequence of DPP-IV enzyme (P27487 whole entry): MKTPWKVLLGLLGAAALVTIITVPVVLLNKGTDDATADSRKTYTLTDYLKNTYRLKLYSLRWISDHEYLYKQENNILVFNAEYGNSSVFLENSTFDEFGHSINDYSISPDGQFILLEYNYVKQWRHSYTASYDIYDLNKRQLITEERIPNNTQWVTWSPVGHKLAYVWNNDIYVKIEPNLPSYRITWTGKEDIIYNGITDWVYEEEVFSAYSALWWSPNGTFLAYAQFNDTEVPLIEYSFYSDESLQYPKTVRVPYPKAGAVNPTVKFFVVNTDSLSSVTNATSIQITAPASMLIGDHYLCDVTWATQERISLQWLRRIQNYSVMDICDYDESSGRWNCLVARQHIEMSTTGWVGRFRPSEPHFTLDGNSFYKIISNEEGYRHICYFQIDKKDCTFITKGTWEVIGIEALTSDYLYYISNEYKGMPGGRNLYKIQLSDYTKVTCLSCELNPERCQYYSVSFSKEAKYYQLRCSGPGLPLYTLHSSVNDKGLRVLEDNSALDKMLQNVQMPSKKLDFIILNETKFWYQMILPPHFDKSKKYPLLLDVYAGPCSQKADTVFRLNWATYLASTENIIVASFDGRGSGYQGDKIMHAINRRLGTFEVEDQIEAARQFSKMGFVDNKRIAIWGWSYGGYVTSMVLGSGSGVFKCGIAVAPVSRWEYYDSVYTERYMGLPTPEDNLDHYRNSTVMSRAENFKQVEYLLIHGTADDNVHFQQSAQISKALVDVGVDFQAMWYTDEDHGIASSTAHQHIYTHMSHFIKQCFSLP

Row | SMILES | IC50 [µM]
1 | CS(=O)(=O)CCNC(=O)c1nc(C(F)(F)F)n2c1CN(C(=O)C[C@H](N)Cc1cc(F)c(F)cc1F)CC2 [Example 2, (R)-7-[3-Amino-4-(2,4,5-trifluoro-phenyl)-butyryl]-3-trifluoromethyl-5,6,7,8-tetrahydro-imidazo[1,5-a]pyrazine-1-carboxylic acid (2-methanesulfonyl-ethyl)-amide hydrochloride] | 0.008
2 | N#CCNC(=O)c1nc(C(F)(F)F)n2c1CN(C(=O)C[C@H](N)Cc1cc(F)c(F)cc1F)CC2 [Example 4, (R)-7-[3-Amino-4-(2,4,5-trifluoro-phenyl)-butyryl]-3-trifluoromethyl-5,6,7,8-tetrahydro-imidazo[1,5-a]pyrazine-1-carboxylic acid cyanomethyl-amide hydrochloride] | 0.022
3 | CCOC(=O)OC(C)OC(=O)c1nc(C(F)(F)F)n2c1CN(C(=O)C[C@H](N)Cc1cc(F)c(F)cc1F)CC2 (stereo partly drawn) [Example 34, (R)-7-[3-Amino-4-(2,4,5-trifluoro-phenyl)-butyryl]-3-trifluoromethyl-5,6,7,8-tetrahydro-imidazo[1,5-a]pyrazine-1-carboxylic acid (1-ethoxycarbonyloxy)-ethyl ester hydrochloride] | 0.031
4 | CC(C)(C)OC(=O)c1nc(C(F)(F)F)n2c1CN(C(=O)C[C@H](N)Cc1cc(F)c(F)cc1F)CC2 [Example 36, (R)-7-[3-Amino-4-(2,4,5-trifluoro-phenyl)-butyryl]-3-trifluoromethyl-5,6,7,8-tetrahydro-imidazo[1,5-a]pyrazine-1-carboxylic acid tert-butyl ester hydrochloride] | 0.221
5 | CC(C)OC(=O)OC(C)OC(=O)c1nc(C(F)(F)F)n2c1CN(C(=O)C[C@H](N)Cc1cc(F)c(F)cc1F)CC2 (stereo partly drawn) [Example 37, (R)-7-[3-Amino-4-(2,4,5-trifluoro-phenyl)-butyryl]-3-trifluoromethyl-5,6,7,8-tetrahydro-imidazo[1,5-a]pyrazine-1-carboxylic acid 1-isopropoxycarbonyloxy-ethyl ester hydrochloride] | 0.033
6 | CC(OC(=O)OC1CCCCC1)OC(=O)c1nc(C(F)(F)F)n2c1CN(C(=O)C[C@H](N)Cc1cc(F)c(F)cc1F)CC2 (stereo partly drawn) [Example 38, (R)-7-[3-Amino-4-(2,4,5-trifluoro-phenyl)-butyryl]-3-trifluoromethyl-5,6,7,8-tetrahydro-imidazo[1,5-a]pyrazine-1-carboxylic acid (1-cyclohexyloxycarbonyloxy)-ethyl ester hydrochloride] | 0.184
7 | COC(=O)c1nc(C(F)(F)F)n2c1C(C)N(C(=O)C[C@H](N)Cc1cc(F)c(F)cc1F)CC2 (stereo partly drawn) [Example 39, (R)-7-[3-Amino-4-(2,4,5-trifluoro-phenyl)-butyryl]-8-methyl-3-trifluoromethyl-5,6,7,8-tetrahydro-imidazo[1,5-a]pyrazine-1-carboxylic acid methyl ester hydrochloride] | 0.016
8 | COC(=O)c1nc(C(F)(F)F)n2c1[C@H](C)N(C(=O)C[C@H](N)Cc1cc(F)c(F)cc1F)CC2 [Example 40, (R)-7-[3-Amino-4-(2,4,5-trifluoro-phenyl)-butyryl]-(S)-8-methyl-3-trifluoromethyl-5,6,7,8-tetrahydro-imidazo[1,5-a]pyrazine-1-carboxylic acid methyl ester hydrochloride] | 0.314
9 | COC(=O)c1nc(C(F)(F)F)n2c1[C@@H](C)N(C(=O)C[C@H](N)Cc1cc(F)c(F)cc1F)CC2 [Example 41, (R)-7-[3-Amino-4-(2,4,5-trifluoro-phenyl)-butyryl]-(R)-8-methyl-3-trifluoromethyl-5,6,7,8-tetrahydro-imidazo[1,5-a]pyrazine-1-carboxylic acid methyl ester hydrochloride] | 0.005
10 | CCCCNC(=O)c1nc(C(F)(F)F)n2c1CN(C(=O)C[C@H](N)Cc1cc(F)c(F)cc1F)CC2 [Example 43, (R)-7-[3-Amino-4-(2,4,5-trifluoro-phenyl)-butyryl]-3-trifluoromethyl-5,6,7,8-tetrahydro-imidazo[1,5-a]pyrazine-1-carboxylic acid butylamide] | 0.063

Next, values leading:

Row | IC50 [µM] | SMILES
11 | 0.089 | N[C@@H](CC(=O)N1CCn2c(C(F)(F)F)nc(C(=O)N3CCOCC3)c2C1)Cc1cc(F)c(F)cc1F [Example 3, (R)-3-Amino-1-[1-(morpholine-4-carbonyl)-3-trifluoromethyl-5,6-dihydro-8H-imidazo[1,5-a]pyrazin-7-yl]-4-(2,4,5-trifluoro-phenyl)-butan-1-one hydrochloride]
12 | 0.027 | CN1CCN(C(=O)c2nc(C(F)(F)F)n3c2CN(C(=O)C[C@H](N)Cc2cc(F)c(F)cc2F)CC3)CC1 [Example 5, (R)-3-Amino-1-[1-(4-methyl-piperazine-1-carbonyl)-3-trifluoromethyl-5,6-dihydro-8H-imidazo[1,5-a]pyrazin-7-yl]-4-(2,4,5-trifluoro-phenyl)-butan-1-one dihydrochloride]
13 | 0.031 | N[C@@H](CC(=O)N1CCn2c(C(F)(F)F)nc(C(=O)N3CCS(=O)(=O)CC3)c2C1)Cc1cc(F)c(F)cc1F [Example 6, (R)-3-Amino-1-[1-(1,1-dioxo-thiomorpholine-4-carbonyl)-3-trifluoromethyl-5,6-dihydro-8H-imidazo[1,5-a]pyrazin-7-yl]-4-(2,4,5-trifluoro-phenyl)-butan-1-one hydrochloride]
14 | 0.025 | NC(=O)C1CCN(C(=O)c2nc(C(F)(F)F)n3c2CN(C(=O)C[C@H](N)Cc2cc(F)c(F)cc2F)CC3)CC1 [Example 7, (R)-1-{7-[3-Amino-4-(2,4,5-trifluoro-phenyl)-butyryl]-3-trifluoromethyl-5,6,7,8-tetrahydro-imidazo[1,5-a]pyrazine-1-carbonyl}-piperidine-4-carboxylic acid amide hydrochloride]
15 | 0.008 | CNC(=O)c1nc(C(F)(F)F)n2c1CN(C(=O)C[C@H](N)Cc1cc(F)c(F)cc1F)CC2 [Example 8, (R)-7-[3-Amino-4-(2,4,5-trifluoro-phenyl)-butyryl]-3-trifluoromethyl-5,6,7,8-tetrahydro-imidazo[1,5-a]pyrazine-1-carboxylic acid methylamide hydrochloride]
16 | 0.075 | CN(C)C(=O)c1nc(C(F)(F)F)n2c1CN(C(=O)C[C@H](N)Cc1cc(F)c(F)cc1F)CC2 [Example 9, (R)-7-[3-Amino-4-(2,4,5-trifluoro-phenyl)-butyryl]-3-trifluoromethyl-5,6,7,8-tetrahydro-imidazo[1,5-a]pyrazine-1-carboxylic acid dimethylamide hydrochloride]
17 | 0.021 | N[C@@H](CC(=O)N1CCn2c(C(F)(F)F)nc(C(=O)O)c2C1)Cc1cc(F)c(F)cc1F [Example 10, (R)-7-[3-Amino-4-(2,4,5-trifluoro-phenyl)-butyryl]-3-trifluoromethyl-5,6,7,8-tetrahydro-imidazo[1,5-a]pyrazine-1-carboxylic acid hydrochloride]
18 | 0.216 | N[C@@H]1CCCN(C(=O)c2nc(C(F)(F)F)n3c2CN(C(=O)C[C@H](N)Cc2cc(F)c(F)cc2F)CC3)C1 [Example 11, (R)-3-Amino-1-[1-(3-amino-piperidine-1-carbonyl)-3-trifluoromethyl-5,6-dihydro-8H-imidazo[1,5-a]pyrazin-7-yl]-4-(2,4,5-trifluoro-phenyl)-butan-1-one dihydrochloride]
19 | 0.059 | N[C@@H](CC(=O)N1CCn2c(C(F)(F)F)nc(C(=O)N3CCCC3)c2C1)Cc1cc(F)c(F)cc1F [Example 12, (R)-3-Amino-1-[1-(pyrrolidine-1-carbonyl)-3-trifluoromethyl-5,6-dihydro-8H-imidazo[1,5-a]pyrazin-7-yl]-4-(2,4,5-trifluoro-phenyl)-butan-1-one hydrochloride]
20 | 0.041 | N[C@@H](CC(=O)N1CCn2c(C(F)(F)F)nc(C(=O)N3CCNCC3)c2C1)Cc1cc(F)c(F)cc1F [Example 13, (R)-3-Amino-1-[1-(piperazine-1-carbonyl)-3-trifluoromethyl-5,6-dihydro-8H-imidazo[1,5-a]pyrazin-7-yl]-4-(2,4,5-trifluoro-phenyl)-butan-1-one dihydrochloride]
21 | 0.047 | N[C@@H](CC(=O)N1CCn2c(C(F)(F)F)nc(C(=O)N3CC[C@@H](O)C3)c2C1)Cc1cc(F)c(F)cc1F [Example 14, (R)-3-Amino-1-[1-((R)-3-hydroxy-pyrrolidine-1-carbonyl)-3-trifluoromethyl-5,6-dihydro-8H-imidazo[1,5-a]pyrazin-7-yl]-4-(2,4,5-trifluoro-phenyl)-butan-1-one hydrochloride]
22 | 0.025 | N[C@@H](CC(=O)N1CCn2c(C(F)(F)F)nc(C(=O)NC3CC3)c2C1)Cc1cc(F)c(F)cc1F [Example 15, (R)-7-[3-Amino-4-(2,4,5-trifluoro-phenyl)-butyryl]-3-trifluoromethyl-5,6,7,8-tetrahydro-imidazo[1,5-a]pyrazine-1-carboxylic acid cyclopropylamide hydrochloride]
23 | 0.031 | CCOC(=O)c1nc(C(F)(F)F)n2c1CN(C(=O)C[C@H](N)Cc1cc(F)c(F)cc1F)CC2 [Example 23, (R)-7-[3-Amino-4-(2,4,5-trifluoro-phenyl)-butyryl]-3-trifluoromethyl-5,6,7,8-tetrahydro-imidazo[1,5-a]pyrazine-1-carboxylic acid ethyl ester hydrochloride]
24 | 0.018 | CCNC(=O)c1nc(C(F)(F)F)n2c1CN(C(=O)C[C@H](N)Cc1cc(F)c(F)cc1F)CC2 [Example 42, (R)-7-[3-Amino-4-(2,4,5-trifluoro-phenyl)-butyryl]-3-trifluoromethyl-5,6,7,8-tetrahydro-imidazo[1,5-a]pyrazine-1-carboxylic acid ethylamide]
25 | 0.052 | CCCNC(=O)c1nc(C(F)(F)F)n2c1CN(C(=O)C[C@H](N)Cc1cc(F)c(F)cc1F)CC2 [Example 44, (R)-7-[3-Amino-4-(2,4,5-trifluoro-phenyl)-butyryl]-3-trifluoromethyl-5,6,7,8-tetrahydro-imidazo[1,5-a]pyrazine-1-carboxylic acid propylamide]

Reference: patent US8513411B2, “Tetrahydro-imidazo[1,5-α] pyrazine derivatives, preparation process and medicinal use thereof” (Jiangsu Hengrui Medicine Co., Ltd., priority 2007, dated 2013)
